Test [1] has as its system ECa-109 cell line. The test is described as follows: Induction of apoptosis in human EC109 cells assessed as effect on bak level at 40 to 60 nM by flow cytometry analysis. The following applies: dose 40-60 nM. The format is functional, cell-based.
For test [2], the system named is Cell membrane. The test is described as follows: Induction of mitochondrial membrane depolarization in human EC109 cells assessed as increase in caspase 9 activity at 40 to 60 nM incubated for 24 hrs by flow cytometry analysis. The format is cell membranes. The following applies: dose 40-60 nM. Background: Flow cytometry measures light scatter and fluorescence of single cells or particles in a stream.

The target in test [3] is T1, Tubulin (Homo sapiens) (UniProt P68371+Q9H4B7+P0DPH7+P68366+Q13509+Q71U36+P04350+Q3ZCM7+P07437+P68363+Q9BQE3+Q6PEY2+Q13885+Q9BVA1+Q9BUF5). Kind of test: Inhibition of tubulin polymerization in human EC109 cells assessed as appearance of multinucleation at 20 to 40 nM incubated for 6 hrs by immunofluorescence staining based fluorescence microscopic analysis. The format is cell-based. The following applies: dose 20-40 nM.

Test [4] deals with KYSE-30. Kind of test: Antiproliferative activity against human KYSE-30 cells assessed as reduction in cell viability at 70 nM measured after 48 hrs by CCK-8 method relative to control. The test is classed as functional.
Test [5] deals with ECa-109 cell line. The test is described as follows: Antiproliferative activity against human EC109 cells assessed as reduction in cell viability at 70 nM measured after 48 hrs by CCK-8 method relative to control. The test is classed as functional.
Test [6] concerns KYSE-30. The test is described as follows: Induction of apoptosis in human KYSE-30 cells assessed as increase in Noxa expression level at 40 to 60 nM by flow cytometry analysis. The test is classed as functional, cell-based. The following applies: dose 40-60 nM.
Test [7] relates to KYSE-30. The test is described as follows: Induction of apoptosis in human KYSE-30 cells assessed as downregulation of XIAP level at 40 to 60 nM by flow cytometry analysis. The test is classed as functional, cell-based. The following applies: dose 40-60 nM.
For test [8], the system named is KYSE-30. The test is described as follows: Induction of apoptosis in human KYSE-30 cells assessed as increase in cleaved caspase 3 level at 40 to 100 nM measured after 48 hrs by Western blot analysis. The format is functional, cell-based. The following applies: dose 40-100 nM.
Test [9] has as its system ECa-109 cell line. The test is described as follows: Induction of apoptosis in human EC109 cells assessed as increase in cleaved caspase 3 level at 40 to 100 nM measured after 48 hrs by Western blot analysis. The test is classed as functional, cell-based. The following applies: dose 40-100 nM.
In test [10] the test system is ECa-109 cell line. Kind of test: Induction of apoptosis in human EC109 cells measured after 48 hrs by annexin V-FITC and PI staining based flow cytometry analysis. The format is functional, cell-based. The following applies: dose 20-40 nM.
Test [11] concerns ECa-109 cell line. Kind of test: Induction of apoptosis in human EC109 cells assessed as effect on Bcl-xl level at 40 to 60 nM by flow cytometry analysis. The test is classed as functional, cell-based. The following applies: dose 40-60 nM.
Test [12] concerns ECa-109 cell line. Kind of test: Induction of apoptosis in human EC109 cells assessed as effect on Mcl-1 level at 40 to 60 nM by flow cytometry analysis. The following applies: dose 40-60 nM. The format is functional, cell-based.
In test [13] the test system is KYSE-30. The test is described as follows: Induction of apoptosis in human KYSE-30 cells assessed as increase in total number of apoptotic cells at 40 nM measured after 48 hrs by annexin V-FITC and PI staining based flow cytometry analysis (reference value: 13.77%). The test is classed as functional.
The test system of test [14] is ECa-109 cell line. The test is described as follows: Induction of cell cycle arrest in human EC109 cells assessed as downregulation of CDC25C level at 40 to 60 nM measured after 48 hrs by Western blot analysis. The format is functional, cell-based. The following applies: dose 40-60 nM. (In general: A western blot detects proteins with antibodies after separation by electrophoresis.)

For test [15], the system named is ECa-109 cell line. The test is described as follows: Induction of apoptosis in human EC109 cells assessed as increase in Noxa expression level at 40 to 60 nM by flow cytometry analysis. The format is functional, cell-based. The following applies: dose 40-60 nM.
For test [16], the system named is KYSE-30. Kind of test: Antiproliferative activity against human KYSE-30 cells assessed as reduction in cell viability measured after 48 hrs by CCK-8 method. The following applies: dose 10-70 nM. The test is classed as functional, cell-based. For orientation: Tetrazolium assays rely on reduction of a dye to a coloured formazan, in cell work by metabolically active cells.

Test [17] concerns Cell membrane. Kind of test: Induction of mitochondrial membrane depolarization in human KYSE-30 cells at 40 to 60 nM incubated for 24 hrs by flow cytometry analysis. The test is classed as cell membranes. The following applies: dose 40-60 nM.
In test [18] the target is T1, Tubulin (Homo sapiens). The test is described as follows: Inhibition of tubulin polymerization (unknown origin) at 0.3 to 3 uM measured upto 4500 secs by fluorescence based analysis. The format is protein-complex assay. The following applies: dose 0.3-3 µM, time <= 4500.0 sec.
Test [19] concerns ECa-109 cell line. The test is described as follows: Induction of cell cycle arrest in human EC109 cells assessed as upregulation of histone H3 phosphorylation level at 40 to 60 nM measured after 48 hrs by Western blot analysis. The test is classed as functional, cell-based. The following applies: dose 40-60 nM.
For test [20], the system named is KYSE-30. The test is described as follows: Induction of apoptosis in human KYSE-30 cells assessed as increase in cleaved PARP level at 40 to 100 nM measured after 48 hrs by Western blot analysis. The format is functional, cell-based. The following applies: dose 40-100 nM.
The test system of test [21] is KYSE-30. Kind of test: Induction of apoptosis in human KYSE-30 cells assessed as decrease in pro-caspase 3 level at 40 to 100 nM measured after 48 hrs by Western blot analysis. The test is classed as functional, cell-based. The following applies: dose 40-100 nM.
The next test deals with ECa-109. The test is described as follows: Effect on MST1 level in human EC109 cells at 40 to 60 nM measured after 48 hrs. The following applies: dose 40-60 nM. The test is classed as functional, cell-based.
The subject of test [22] is KYSE-30. Kind of test: Induction of cell cycle arrest in human KYSE-30 cells assessed as accumulation of cells at G2/M phase at 0 to 40 nM measured after 48 hrs by propidium iodide staining based flow cytometry analysis (reference value: 13.87%). The format is functional. The following applies: dose 0-40 nM.

Calls of active or inactive are those of the source. The rule behind the calls is not given here.

One compound from ChEMBL document CHEMBL5518189, “Design, synthesis and biological evaluation of 1,2,3-triazole benzothiazole derivatives as tubulin polymerization inhibitors with potent anti-esophageal cancer activities” (Eur J Med Chem, 2024) can be followed below.

`COc1ccc(CN(C(=O)Cn2cc(CSc3nc4ccccc4s3)nn2)c2cc(OC)c(OC)c(OC)c2)cc1O`: the result in the test with ECa-109 cell line [1], in the test on ECa-109 cell line [11], in the test on ECa-109 cell line [12] and with ECa-109 was inactive. For the same compound, the result in the test with Cell membrane [2], with KYSE-30 [6], with KYSE-30 [7], in the test on KYSE-30 [8], with ECa-109 cell line [9] and in the test on ECa-109 cell line [14] was Active. Further, the result in the test on ECa-109 cell line [15], in the test on Cell membrane [17], in the test with ECa-109 cell line [19], in the test on KYSE-30 [20] and in the test on KYSE-30 [21] was Active. For the same compound, the inhibition result on Tubulin (Homo sapiens) [3] and at Tubulin (Homo sapiens) [18] was “Active” each time. In addition, the Activity with KYSE-30 [4] was over 90%; in the test with ECa-109 cell line [5], over 90%; in the test on ECa-109 cell line [10] it was “Dose-Dependent Effect”; in the test with KYSE-30 [13], 28.56%; with KYSE-30 [16] it was “Dose-Dependent Effect”; with KYSE-30 [22], 28.15%.
